Values quoted from earlier work, collected in patent US20070117750A1, “METHOD FOR ENHANCED OCULAR DRUG PENETRATION” (priority 2005, published 2007).

Key:
[1] = topical instillation
[2] = topical ocular dose of 225 μg

Clc1cccc(Cl)c1N=C1NCCN1 [clonidine]
peak concentration time, aqueous humor [1]: 15 min
peak concentration time, iris ciliary/body ([1]; or first time interval that can be measured): 2 min

CC(C(=O)O)c1ccc(-c2ccccc2)c(F)c1 (stereo not drawn) [flurbiprofen]
systemic bioavailability [2]: 74%
